Here are results for 14 compounds from US6624163B2, “Benzothiazole derivatives” (Hoffman-La Roche Inc., priority 2001, dated 2003).

The target in the first data set is T1, human adenosine A2A receptor (Homo sapiens, UniProt P29274).
T1 construct: expressed in transfected cells; host or cells: CHO cells, semliki forest virus expression system; membrane preparation
T1 sequence (P29274 whole entry): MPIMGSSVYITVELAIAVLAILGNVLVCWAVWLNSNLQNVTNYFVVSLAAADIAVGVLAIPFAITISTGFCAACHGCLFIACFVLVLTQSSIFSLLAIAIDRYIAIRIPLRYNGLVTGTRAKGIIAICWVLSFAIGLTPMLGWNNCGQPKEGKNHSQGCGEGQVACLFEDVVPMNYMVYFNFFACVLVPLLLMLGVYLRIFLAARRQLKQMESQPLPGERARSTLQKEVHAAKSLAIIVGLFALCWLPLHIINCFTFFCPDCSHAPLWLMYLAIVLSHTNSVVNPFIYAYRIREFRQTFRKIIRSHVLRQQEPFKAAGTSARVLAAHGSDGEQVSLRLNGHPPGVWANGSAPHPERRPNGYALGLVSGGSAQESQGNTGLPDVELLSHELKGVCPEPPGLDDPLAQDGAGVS
The data set can be described thus: [3H]-SCH-58261 binding assay, human adenosine A2A receptor expressed in CHO cell membranes (SPA). Conditions: [3H]-SCH-58261 (1 nM) displacement; recombinant receptor in CHO cell membranes; Ki by Cheng-Prussoff from IC50; read-out: hA2 (pKi) (converted). On the procedure:
Human Adenosine A2A Receptor
The human adenosine A2A receptor was recombinantly expressed in chinese hamster ovary (CHO) cells using the semliki forest virus expression system. Cells were harvested, washed twice by centrifugation, homogenised and again washed by centrifugation. The final washed membrane pellet was suspended in a Tris (50 mM) buffer containing 120 mM NaCl, 5 mM KCl, 2 mM CaCl2 and 10 mM MgCl2 (pH 7.4) (buffer A). The [^3H]-SCH-58261 (Dionisotti et al., 1997, Br J Pharmacol 121, 353; 1 nM) binding assay was carried out in 96-well plates in the presence of 2.5 μg of membrane protein, 0.5 mg of Ysi-poly-1-lysine SPA beads and 0.1 U adenosine deaminase in a final volume of 200 μl of buffer A. Non-specific binding was defined using xanthine amine congener (XAC; 2 μM). Compounds were tested at 10 concentrations from 10 μM −0.3 nM. All assays were conducted in duplicate and repeated at least two times. Assay plates were incubated for 1 hour at room temperature before centrifugation and then bound ligand determined using a Packard Topcount scintillation counter. IC50 values were calculated using a non-linear curve fitting program and Ki values calculated using the Cheng-Prussoff equation.
As to `COCC(=O)NCc1ccc(C(=O)Nc2nc3c(OC)ccc(N4CCOCC4)c3s2)cc1` [Example 1, 4-[(2-Methoxy-acetylamino)-methyl]-N-(4-methoxy-7-morpholin-4-yl-benzothiazol-2-yl)-benzamide], the Ki is 0.794 nM.
For the compound `COCC(=O)N(C)Cc1ccc(C(=O)Nc2nc3c(OC)ccc(N4CCOCC4)c3s2)cc1` [Example 2, 4-[(Methoxyacetyl-methyl-amino)-methyl]-N-(4-methoxy-7-morpholin-4-yl-benzothiazol-2-yl)-benzamide], the Ki is 1.26 nM.
On the same count and under the same terms, in the case of `COc1ccc(N2CCOCC2)c2sc(NC(=O)c3ccc(CN(C)C(=O)C4CC4)cc3)nc12` [Example 4, 4-[(Cyclopropanecarbonyl-methyl-amino)-methyl]-N-(4-methoxy-7-morpholin-4-yl-benzothiazol-2-yl)-benzamide] it was 0.631 nM.
Still for that read-out and setting: in the case of `COc1ccc(N2CCOCC2)c2sc(NC(=O)c3ccc(CN(C)C(=O)C4CCC4)cc3)nc12` [Example 5, 4-[(Cyclobutanecarbonyl-methyl-amino)-methyl]-N-(4-methoxy-7-morpholin-4-yl-benzothiazol-2-yl)-benzamide] it was 0.794 nM; in that of `CCC(=O)N(C)Cc1ccc(C(=O)Nc2nc3c(OC)ccc(N4CCOCC4)c3s2)cc1` [Example 6, N-(4-Methoxy-7-morpholin-4-yl-benzothiazol-2-yl)-4-[(methyl-propionyl-amino)-methyl]-benzamide], 0.631 nM.
Consider `CCC(=O)NCc1ccc(C(=O)Nc2nc3c(OC)ccc(N4CCOCC4)c3s2)cc1` [Example 7, N-(4-Methoxy-7-morpholin-4-yl-benzothiazol-2-yl)-4-(propionylamino-methyl)-benzamide], for which the Ki is 1 nM.
Regarding `COc1ccc(N2CCOCC2)c2sc(NC(=O)c3ccc(CNC(=O)C4CC4)cc3)nc12` [Example 9, 4-[(Cyclopropanecarbonyl-amino)-methyl]-N-(4-methoxy-7-morpholin-4-yl-benzothiazol-2-yl)-benzamide], the Ki is 1 nM.
Same read-out and setting: in the case of `COc1ccc(N2CCOCC2)c2sc(NC(=O)c3ccc(CN(C)C(C)=O)cc3)nc12` [Example 10, 4-[(Acetyl-methyl-amino)-methyl]-N-(4-methoxy-7-morpholin-4-yl-benzothiazol-2-yl)-benzamide] it was 1 nM.
On to `COc1ccc(N2CCOCC2)c2sc(NC(=O)c3ccc(CNC(=O)C4CCC4)cc3)nc12` [Example 11, 4-[(Cyclobutanecarbonyl-amino)-methyl]-N-(4-methoxy-7-morpholin-4-yl-benzothiazol-2-yl)-benzamide], for which the Ki is 0.501 nM.
On the same count and under the same terms, as for `COc1ccc(N2CCOCC2)c2sc(NC(=O)c3ccc(CNC(C)=O)cc3)nc12` [Example 12, 4-(Acetylamino-methyl)-N-(4-methoxy-7-morpholin-4-yl-benzothiazol-2-yl)-benzamide], the figure is 0.794 nM.
The same measure, in the same setting: as for `CCC(=O)N(CC)Cc1ccc(C(=O)Nc2nc3c(OC)ccc(N4CCOCC4)c3s2)cc1` [Example 14, 4-[(Ethyl-propionyl-amino)-methyl]-N-(4-methoxy-7-morpholin-4-yl-benzothiazol-2-yl)-benzamide], the figure is 1.26 nM; as for `COc1ccc(N2CCOCC2)c2sc(NC(=O)c3ccc(CN(C)C(=O)CN(C)C)cc3)nc12` [Example 15, 4-[(Dimethylaminoacetyl-methyl-amino)-methyl]-N-(4-methoxy-7-morpholin-4-yl-benzothiazol-2-yl)-benzamide], 1.26 nM.
The same measure, in the same setting: in the case of `COc1ccc(N2CCOCC2)c2sc(NC(=O)c3ccc(CN(C)C(=O)CN4CCCC4)cc3)nc12` [Example 19, N-(4-Methoxy-7-morpholin-4-yl-benzothiazol-2-yl)-4-{[methyl-(pyrrolidin-1-yl-acetyl)-amino]-methyl}-benzamide] it was 1.58 nM.

System in another data set: not given
Experiment: not given
Conditions: not given
In the case of `COCCN(C)CC(=O)N(C)Cc1ccc(C(=O)Nc2nc3c(OC)ccc(N4CCOCC4)c3s2)cc1` [Example 18, 4-[({[(2-Methoxy-ethyl)-methyl-amino]-acetyl}-methyl-amino)-methyl]-N-(4-methoxy-7-morpholin-4-yl-benzothiazol-2-yl)-benzamide], the melting point lay within 171 to 173 °C.
In turn, `COc1ccc(N2CCOCC2)c2sc(NC(=O)c3ccc(CN(C)C(=O)CN4CCCC4)cc3)nc12` [Example 19, N-(4-Methoxy-7-morpholin-4-yl-benzothiazol-2-yl)-4-{[methyl-(pyrrolidin-1-yl-acetyl)-amino]-methyl}-benzamide] had a melting point of 114 to 116 °C.
